Experimental data taken from ChEMBL document CHEMBL1154966, “Metabolic activation of N-thiazol-2-yl benzamide as glucokinase activators: Impacts of glutathione trapping on covalent binding” (Bioorg Med Chem Lett, 2010).

How the values were obtained:
Assay type in all cases: ADME, Microsome
[1] = tested on: Liver microsomes; experiment: Metabolic stability in human liver microsomes assessed as covalent binding at 10 uM after 1 hr preincubated for 15 mins with NADPH by scintillation counting
[2] = tested on: Liver microsomes; experiment: Metabolic stability in human liver microsomes assessed as covalent binding at 10 uM after 1 hr by scintillation counting in absence of NADPH
[3] = tested on: Liver microsomes; experiment: Metabolic stability in rat liver microsomes assessed as covalent binding at 10 uM after 1 hr preincubated for 15 mins with NADPH by scintillation counting
[4] = tested on: Liver microsomes; experiment: Metabolic stability in rat liver microsomes assessed as covalent binding at 10 uM after 1 hr by scintillation counting in presence of glutathione
[5] = tested on: Liver microsomes; experiment: Metabolic stability in rat liver microsomes assessed as covalent binding at 10 uM after 1 hr by scintillation counting in absence of NADPH

- Stability [1]: 715 pmolequiv/mg
- Stability [2]: 10 pmolequiv/mg
- Stability [3]: 378 pmolequiv/mg
- Stability [4]: 50 pmolequiv/mg
- Stability [5]: 0 pmolequiv/mg
Compound: C[C@@H](CO)Oc1cc(Oc2ccc(S(C)(=O)=O)cc2)cc(C(=O)Nc2nccs2)c1
